Source: patent US9498420B2, “Cosmetic compositions and methods for inhibiting melanin synthesis” (The Procter & Gamble Company, priority 2013, dated 2016)

System: B16-F1 mouse melanoma cells
Test: Melanin Synthesis Assay
Assay type: cell-based
Experimental: A B16-F1 mouse melanoma cell line may be employed as an assay to measure melanin synthesis. The B16-F1 cells may be obtained from […], Virginia, USA. The cell culture medium that may be used in the assay may comprise 500 mL of Dulbecco's Modified Eagle's Medium (DMEM), 50 mL Fetal Bovine Serum (FBS), and 5 mL of penicillin-streptomycin liquid. B16-F1 cells that are cultured in this medium and grown to greater than 90% confluency synthesize melanin. While not intending to be bound by any theory, it is hypothesized that melanin synthesis is stimulated by the culture medium and/or stress induced by growth to a high confluency. The DMEM and FBS can be obtained from […] and the penicillin-streptomycin liquid can be obtained from Invitrogen, Inc., California, USA. Equipment used in the assay include a CO2 incubator, such as a Forma Series Model 3110 by Therma Scientific, Massachusetts, USA; a hemocytometer, such as a Bright Line model by Hauser Scientific, Pennsylvania, USA; and a UV-Visible Spectrum Plate Reader, such as a SpectraMax250 from Molecular Devices, California, USA. The assay steps may include: Day 0—Cell Growth: Warm the cell culture medium to 37° C. and place 29 mL into a T-150 flask. Add approximately 1×10^6 of B16-F1 passage 1 mouse cells to the T-150 flask and incubate for 3 days at 37° C., 5% CO2, 90% relative humidity, until ˜80% confluency; Day 3—Initiate a 96 Well Plate: At day 3, trypsinize the cells from the T-150 flask and determine the concentration of cells using a hemocytometer. Initiate a 96 well plate with 2,500 cells per well in 100 microliters of cell culture medium. […] Read the 96 well plate using the UV-Vis Plate Reader at 410 nm to optically measure the amount of melanin produced between wells that are treated with [test compound] and control wells that are not treated with a test compound. […] Percentage of melanin synthesis inhibition is calculated by the following equation: [formula] Where OD410 is the Optical Density at 410 nm as measured by the UV-Vis Spectrum Plate Reader. […]

| Structure (SMILES) | reduction in the production of melanin as compared to Sample 4 (HD/UP/Nia) (Table 1 concentrations, B16-F1 mouse melanoma cells, statistical comparison) | Average Melanin % Inhibition (Table 2, B16-F1 cells, where present: 0.03% batyl alcohol, 0.003% bisabolol, 0.0005% hexyldecanol, 0.0001% undecylenoyl phenylalanine, 0.0005% niacinamide) [%] | reduction in the production of melanin as compared to Sample 9 (HD/UP/Nia) (Table 2 concentrations, mouse melanoma cells, statistical comparison) |
| --- | --- | --- | --- |
| CC(C)=CCC[C@](C)(O)[C@@H]1CC=C(C)CC1 [Sample 1, bisabolol] | did not significantly reduce |  |  |
| CCCCCCCCCCCCCCCCCCOCC(O)CO (stereo not drawn) [Sample 8, batyl alcohol] |  | 7 | did not significantly reduce |
